Results: article PMC3169616, “Unique Residues Involved in Activation of the Multitasking Protease/Chaperone HtrA from Chlamydia trachomatis” (PLoS ONE, 2011)

How the values were obtained:
[1] = test system: CtHtrA I365D; assay: Oligomerisation assay, mutated protein; assay type: biochemical, Chlamydia trachomatis; conditions: I365D mutant, 10 mins incubation
Method: (§1) E. coli DegP proteolysis activation involves the transition from resting hexamers via trimers to 12- and 24-mers following the peptide activator binding to the PDZ1 binding cleft. CtHtrA oligomer formation induced by Act1 addition was examined after incubation for 10 mins at 37°C. The wild type and mutant proteins were incubated with either the ß-casein based activator peptide (Act1), or with whole insulin (intact), or in the absence of any activator as a control. CtHtrA incubated in the absence of any added activators formed 24-mers with some hexamers detected after 10 mins (Fig. 5). […] The R299W mutant was present as hexamer and 24-mer in the control with no activator. […] The L302N mutant was not detected in any higher oligomeric form under any conditions. L302N was detected as faint hexamer and trimer but mostly monomer under all tested conditions (not visible on these gels). […] I365D was detected as hexamers, trimers, 12-mers, and some 24-mers when incubated in the absence of activators.
(§2) The oligomerisation of HtrA into 12- and 24-mer complexes has been independently detected for E. coli HtrA (DegP). The oligomerisation of HtrA (DegP) was triggered by peptides from digested ß-casein [18]. Assays to detect whether CtHtrA and site directed mutant protein oligomerisation was triggered by substrates were conducted essentially as previously described (Merdanovic et al., 2010). Briefly, 2 mg/ml protein solutions in 100 mM sodium phosphate buffer pH 7.0 were pre-incubated to the required temperature. The ligands (activator peptide, or insulin) were added and at 10 min, and the proteins were fixed using 0.5% glutaraldehyde. Samples were fixed at room temperature for 2 min prior to addition of 1 M Tris pH 7.5 to remove any excess glutaraldehyde. Samples were incubated for another 10 min at room temperature prior to addition of SDS PAGE reducing loading buffer. The protein samples were examined on 3–8% TrisAcetate gradient polyacrylamide gels (Novex, Invitrogen) by silver staining. The proteins used in this study were not initially denatured by treatment with urea as, the refolding, formation of oligomers, and protease activity was never successfully detected with denatured CtHtrA. All assays were conducted in duplicate on three separate occasions with at least two gels of each experiment completed for each assay condition.

[2] = test system: CtHtrA R299W; assay: Oligomerisation assay, mutated protein; assay type: biochemical, Chlamydia trachomatis; conditions: R299W mutant, 10 mins incubation
Method: as §1, §2

[3] = test system: CtHtrA R373A; assay: Oligomerisation assay, mutated protein; assay type: biochemical, Chlamydia trachomatis; conditions: R373A mutant, 10 mins incubation
Method: as §1, §2

[4] = target: T1, CtHtrA (Chlamydia trachomatis serovar D, UniProt P18584); assay: Oligomerisation assay (glutaraldehyde crosslinking, 3-8% TrisAcetate gel, silver stain); assay type: biochemical; conditions: wild type CtHtrA 2 mg/ml, 100 mM sodium phosphate pH 7.0, 10 mins at 37°C, 0.5% glutaraldehyde fixation
T1 construct: His-tag; made in house; host or cells: E. coli BL21 (DE3), plasmid pETHtrA
T1 sequence (P18584 17-497): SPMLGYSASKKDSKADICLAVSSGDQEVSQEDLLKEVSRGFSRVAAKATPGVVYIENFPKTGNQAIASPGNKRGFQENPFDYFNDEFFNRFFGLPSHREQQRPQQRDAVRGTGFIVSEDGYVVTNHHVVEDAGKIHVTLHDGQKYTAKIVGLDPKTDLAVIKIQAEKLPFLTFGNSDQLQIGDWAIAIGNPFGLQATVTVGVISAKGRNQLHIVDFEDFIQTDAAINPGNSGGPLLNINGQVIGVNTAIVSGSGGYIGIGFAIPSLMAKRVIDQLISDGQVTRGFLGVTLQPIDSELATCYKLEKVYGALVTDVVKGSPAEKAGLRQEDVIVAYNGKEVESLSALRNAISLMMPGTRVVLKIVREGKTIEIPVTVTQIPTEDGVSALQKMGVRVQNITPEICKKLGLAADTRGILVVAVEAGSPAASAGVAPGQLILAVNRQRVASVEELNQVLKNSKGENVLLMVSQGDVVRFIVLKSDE
Method: as §1, §2

[5] = target: T1, CtHtrA; assay: MS and MS-MS analysis of peptide cleavage products; assay type: biochemical; conditions: data not shown
Method: Bcas1 and Act1 peptides (150 µM concentration) digested with CtHtrA (71 µg) were analysed by online LC/MS/MS using a QStar Pulsar I (Applied Biosystems) in […] mode. Data acquired were converted into mzXML format using proteowizard (v2) and searched using ([…], the global proteome machine, ftp://ftp.thegpm.org/fasta/cRAP), against CtHtrA and Act1 and Bcas1 peptide sequences with an included decoy database of the reverse sequence for each protein. The search also included potential mass modifications accounting for the additional […] moieties on the N and C peptide termini, respectively. Matches with an expected ratio of <1 were considered identified. All raw data and mass spectra can be made available on request.

[6] = test system: CtHtrA R373A/R299W; assay: Oligomerisation assay, mutated protein; assay type: biochemical, Chlamydia trachomatis; conditions: R373A/R299W mutant, 10 mins incubation
Excerpt: This activation was very similar to that observed for CtHtrA, and was the only condition during which any of the mutated proteins oligomerised in a similar profile to CtHtrA.
as §2, with “All assays were conducted in duplicate on three separate occasions with at least two gels of each experiment completed for each assay condition.” left out

With H-VLGPVRGPFPIIV-OH [Act1] the “oligomer formation induced by activator” value [1] was “no 12-mers, but only hexamers and 24-mers were detected”, the “oligomer formation induced by activator” value [2] was “Low levels of 24-mer were formed” and the “oligomer formation induced by activator” value [3] was “resulted in 24-mer formation”. For the same substance, the “CtHtrA oligomer formation induced by activator” value [4] was “induced the protein to form 24-mers”, the “cleavage of activator peptide by CtHtrA, MALDI MS MS” value [5] was “No evidence of Act1 cleavage” and the “oligomer formation induced by activator” value [6] was “induced R373A/R299W 24-mer formation”.
